US11478440B2, “Combination of Elafibranor or derivatives thereof with an anti-NASH, anti-fibrotic or anti-cholestatic agent” (GENFIT, priority 2017, dated 2022)

Tested on: 3D Huh7 spheroids
Test: Lipid accumulation (AdipoRed) in 3D Huh7 spheroid culture under metabolic NASH stimulus
Assay type: cell-based
Settings: Elafibranor 3 μM alone, Day 7
Method: Cryopreserved Huh7 were purchased from ECACC. Cells were grown in ULA plates (Costar), William's medium (Sigma) containing 10% FBS (Gibco) at 37° C. in a humidified 5% CO2 cell culture incubator. Cells aggregated and formed spheroids within 5 days.
For these experiments, a checkerboard matrix was generated. ELA and component (ii) stocks were serially diluted in DMSO in 2-points series in a row (ELA) and a 3-points series in a column (component (ii)) of a 96-well plate. Subsequently, the 2×3 combination matrix was generated by 1:1 mixing of all single agent concentrations.
3D Huh7 spheroids were cultured under standard conditions, as described above. They were then deprived for 24 hours in serum-free medium. For the treatments with ELA, component (ii) and the respective ELA/component (ii) combinations, the serum-deprived spheroids were treated with both a metabolic NASH stimulus and the compounds (Day 0) followed by the renewal of the metabolic NASH stimulus and the compounds at Day 4 for an additional 3 days period. The spheroids were stained for lipid accumulation at Day 7.
Intracellular lipid accumulation was quantified using the ADIPORED Assay Reagent (Lonza). Spheroids were subjected to fluorescence assay quantification at λexc: 485 nm and λem: 572 nm, using fluorescence plate reader (TECAN).

Substance: 1-[4-methylthiophenyl]-3-[3,5-dimethyl-4-carboxydimethylmethyloxyphenyl]prop-2-en-1-one [Elafibranor]
- reduction of fat content: 12%
